# Where a name gives a salt, the structure may show the parent alone.
# Molecular target: Human Thrombin (Homo sapiens, UniProt P00734)
# Experiment: biochemical
# Settings: read-out: Kass Human Thrombin (converted)
row,Structure (SMILES),Kd [µM]
1,"N=C(N)c1ccc(CNC(=O)[C@@H]2CCCN2C(=O)[C@@H](CCc2ccccc2)NCC(=O)O)cc1 [Example 87, HOOCCH2-D-hPhe-Pro-p-NHCH2C6H4C(NH)NH2·HCl]",0.0333
2,"CCS(=O)(=O)N[C@H](CC1CCCCC1)C(=O)N1CCC[C@H]1C(=O)NCc1ccnc(N)c1 [Example 83, EtSO2-D-Cha-Pro-4-NHCH2-2-aminopyridine·HCl]",0.417
3,"CCS(=O)(=O)N[C@H](CC1CCCCC1)C(=O)N1CCC[C@H]1C(=O)NCc1ccc(CN)cc1 [Example 81, EtSO2-D-Cha-Pro-4-NHCH2C6H4CH2NH2·HCl]",0.189
4,"N=C(N)c1ccc(CNC(=O)CN(CCc2ccccc2)C(=O)CNCC(=O)O)cc1 [Example 89, HOOCCH2-Gly-N-C6H5CH2CH2Gly-p-NHCH2C6H4C(NH)NH2·HCl]",7.14
5,"NCC1CCC(CNC(=O)[C@@H]2CCCN2C(=O)[C@@H](CC2CCCCC2)NCC(=O)O)CC1 (stereo partly drawn) [Example 79, HO2CCH2-D-Cha-Pro-4-NHCH2C6H10CH2NH2·HCl]",0.5
6,"NCc1ccc(CNC(=O)[C@@H]2CCCN2C(=O)[C@@H](CC2CCCCC2)NCC(=O)O)cc1 [Example 78, HO2CCH2-D-Cha-Pro-4-NHCH2C6H4CH2NH2·HCl]",0.0909
7,"CCC(CC)C(=O)N[C@@H](CCS(C)(=O)=O)C(=O)N1CCC[C@H]1C(=O)NCc1ccc(C(=N)N)cc1 [Example 91, (C2H5)2CHCO-Met(O2)-Pro-p-NHCH2C6H4C(NH)NH2·HCl]",0.278

# Molecular target: factor Xa (Homo sapiens, UniProt P00742)
# Sequence (P00742 235-488 limits assumed): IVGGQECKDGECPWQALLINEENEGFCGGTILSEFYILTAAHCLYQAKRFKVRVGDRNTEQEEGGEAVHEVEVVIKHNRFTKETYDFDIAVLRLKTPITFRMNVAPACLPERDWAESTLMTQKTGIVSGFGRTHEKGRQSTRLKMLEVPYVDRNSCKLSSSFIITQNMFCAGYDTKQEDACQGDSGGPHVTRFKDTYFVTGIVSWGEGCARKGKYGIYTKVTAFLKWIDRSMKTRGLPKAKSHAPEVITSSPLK
# Sequence (P00742 41-179 partner limits assumed): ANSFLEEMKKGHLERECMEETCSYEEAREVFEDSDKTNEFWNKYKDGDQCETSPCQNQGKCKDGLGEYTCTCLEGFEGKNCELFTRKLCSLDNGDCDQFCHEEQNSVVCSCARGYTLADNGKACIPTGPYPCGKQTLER
# Experiment: biochemical
# Settings: read-out: Kass Xa (converted)
# Description: (§1) By substantially following the procedures described above for human thrombin, and using other human blood coagulation system serine proteases and proteases of the fibrinolytic system with the appropriate chromogenic substrates, identified below, selectivity of the compounds of the present invention with respect to the coagulation factor serine proteases and with respect to the fibrinolytic system serine proteases are evaluated as well as their substantial lack of interference with serine proteases of the fibrinolytic system. Thrombin inhibitors preferably should spare fibrinolysis induced by urokinase, tissue plasminogen activator (t-PA) and streptokinase. This would be important to the therapeutic use of such agents as an adjunct to streptokinase, t-PA or urokinase thrombolytic therapy and to the use of such agents as an endogenous fibrinolysis-sparing (with respect to t-PA and urokinase) antithrombotic agent. In addition to the lack of interference with the amidase activity of the fibrinolytic proteases, such fibrinolytic system sparing can be studied by the use of human plasma clots and their lysis by the respective fibrinolytic plasminogen activators.
# (§2) Human factors X, Xa, IXa, XIa, and XIIa are purchased from Enzyme Research Laboratories, South Bend, Indiana; human urokinase from Leo Pharmaceuticals, Denmark; and recombinant activated Protein C (aPC) is prepared at Eli Lilly and Co. substantially according to U.S. Patent 4,981,952. Chromogenic substrates: N-Benzoyl-Ile-Glu-Gly-Arg-p-nitroanilide (for factor Xa); N-Cbz-D-Arg-Gly-Arg-p-nitroanilide (for factor IXa assay as the factor Xa substrate); Pyroglutamyl-Pro-Arg-p-nitroanilide (for Factor XIa and for aPC); H-D-Pro-Phe-Arg-p-nitroanilide (for factor XIIa); and Pyroglutamyl-Gly-Arg-p-nitroanilide (for urokinase); are purchased from KabiVitrum, Stockholm, Sweden, or from Midwest Biotech, Fishers, Indiana. Bovine trypsin is purchased from Worthington Biochemicals, Freehold, New Jersey, and human plasma kallikrein from Kabi Vitrum, Stockholm, Sweden. Chromogenic substrate H-D-Pro-Phe-Arg-p-nitroanilide for plasma kallikrein is purchased from Kabi Vitrum, Stockholm, Sweden. N-Benzoyl-Phe-Val-Arg-p-nitroanilide, the substrate for human thrombin and for trypsin, is synthesized according to procedures described above for the compounds of the present invention, using known methods of peptide coupling from commercially available reactants or purchased from Midwest Biotech, Fishers, Indiana.
row,Structure (SMILES),Kd [µM]
1,"N=C(N)c1ccc(CNC(=O)[C@@H]2CCCN2C(=O)[C@@H](CCc2ccccc2)NCC(=O)O)cc1 [Example 87, HOOCCH2-D-hPhe-Pro-p-NHCH2C6H4C(NH)NH2·HCl]",0.4
2,"N=C(N)c1ccc(CNC(=O)CN(CCc2ccccc2)C(=O)CNCC(=O)O)cc1 [Example 89, HOOCCH2-Gly-N-C6H5CH2CH2Gly-p-NHCH2C6H4C(NH)NH2·HCl]",14.1
3,"CCC(CC)C(=O)N[C@@H](CCS(C)(=O)=O)C(=O)N1CCC[C@H]1C(=O)NCc1ccc(C(=N)N)cc1 [Example 91, (C2H5)2CHCO-Met(O2)-Pro-p-NHCH2C6H4C(NH)NH2·HCl]",143

# Molecular target: T1, Trypsin (Bos taurus, UniProt P00760)
# T1 sequence (P00760 24-246): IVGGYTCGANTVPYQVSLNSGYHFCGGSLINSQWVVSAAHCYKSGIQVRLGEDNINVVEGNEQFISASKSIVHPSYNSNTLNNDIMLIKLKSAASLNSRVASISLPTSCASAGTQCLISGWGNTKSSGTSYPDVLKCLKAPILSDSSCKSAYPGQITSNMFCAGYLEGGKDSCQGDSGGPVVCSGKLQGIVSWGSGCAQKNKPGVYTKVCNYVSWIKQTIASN
# Experiment: biochemical
# Design: species or system Bovine
# Settings: read-out: Kass Trypsin (converted)
# Description: as §1, §2
row,Structure (SMILES),Kd [µM]
1,"CCS(=O)(=O)N[C@H](CC1CCCCC1)C(=O)N1CCC[C@H]1C(=O)NCc1ccnc(N)c1 [Example 83, EtSO2-D-Cha-Pro-4-NHCH2-2-aminopyridine·HCl]",33.3
2,"CCS(=O)(=O)N[C@H](CC1CCCCC1)C(=O)N1CCC[C@H]1C(=O)NCc1ccc(CN)cc1 [Example 81, EtSO2-D-Cha-Pro-4-NHCH2C6H4CH2NH2·HCl]",0.476
3,"NCC1CCC(CNC(=O)[C@@H]2CCCN2C(=O)[C@@H](CC2CCCCC2)NCC(=O)O)CC1 (stereo partly drawn) [Example 79, HO2CCH2-D-Cha-Pro-4-NHCH2C6H10CH2NH2·HCl]",4.17
4,"NCc1ccc(CNC(=O)[C@@H]2CCCN2C(=O)[C@@H](CC2CCCCC2)NCC(=O)O)cc1 [Example 78, HO2CCH2-D-Cha-Pro-4-NHCH2C6H4CH2NH2·HCl]",0.116

# Tested on: human or animal plasma
# Experiment: Anticoagulation determination in plasma: thrombin time (TT)
# Assay type: biochemical
# Settings: concentration doubling thrombin time
# Description: (§3) Dog plasma and rat plasma is obtained from conscious mixed-breed hounds (either sex, Hazelton-LRE, Kalamazoo, Michigan, U.S.A.) or from anesthetized male Sprague-Dawley rats (Harlan Sprague-Dawley, Inc., Indianapolis, Indiana, U.S.A.) by venipuncture into 3.8 percent citrate. Fibrinogen is prepared from in-date ACD human blood as the fraction I-2 according to previous procedures and specifications. Smith, Biochem. J., 185, 1-11 (1980); and Smith, et al., Biochemistry, 11, 2958-2967 (1972). Human fibrinogen is also purchased as 98 percent pure/plasmin free from American Diagnostica, Greenwich, Connecticut. Coagulation reagents ACTIN, Thromboplastin, and Human plasma are from Baxter Healthcare Corp., Dade Division, Miami, Florida. Bovine thrombin from Parke-Davis (Ann Detroit, Michigan) is used for coagulation assays in plasma.
# (§4) Coagulation assay procedures are as previously described. Smith, et al., Thrombosis Research, 50, 163-174 (1988). A CoAScreener coagulation instrument (American LABor, Inc.) is used for all coagulation assay measurements. The prothrombin time (PT) is measured by adding 0.05 mL saline and 0.05 mL Thromboplastin-C reagent to 0.05 mL test plasma. The activated partial thromboplastin time (APTT) is measured by incubation of 0.05 mL test plasma with 0.05 mL Actin reagent for 120 seconds followed by 0.05 mL CaCl2 (0.02 M). The thrombin time (TT) is measured by adding 0.05 mL saline and 0.05 mL thrombin (10 NIH units/mL) to 0.05 mL test plasma. The compounds of Formula I are added to human or animal plasma over a wide range of concentrations to determine prolongation effects on the APTT, PT, and TT assays. Linear extrapolations are performed to estimate the concentrations required to double the clotting time for each assay.
row,Structure (SMILES),Human Plasma Anticoagulation 2x Clotting time (ng/mL) TT [ng/mL]
1,"N=C(N)c1ccc(CNC(=O)[C@@H]2CCCN2C(=O)[C@@H](CCc2ccccc2)NCC(=O)O)cc1 [Example 87, HOOCCH2-D-hPhe-Pro-p-NHCH2C6H4C(NH)NH2·HCl]",9
2,"CCS(=O)(=O)N[C@H](CC1CCCCC1)C(=O)N1CCC[C@H]1C(=O)NCc1ccnc(N)c1 [Example 83, EtSO2-D-Cha-Pro-4-NHCH2-2-aminopyridine·HCl]",91
3,"CCS(=O)(=O)N[C@H](CC1CCCCC1)C(=O)N1CCC[C@H]1C(=O)NCc1ccc(CN)cc1 [Example 81, EtSO2-D-Cha-Pro-4-NHCH2C6H4CH2NH2·HCl]",110
4,"N=C(N)c1ccc(CNC(=O)CN(CCc2ccccc2)C(=O)CNCC(=O)O)cc1 [Example 89, HOOCCH2-Gly-N-C6H5CH2CH2Gly-p-NHCH2C6H4C(NH)NH2·HCl]",570
5,"NCC1CCC(CNC(=O)[C@@H]2CCCN2C(=O)[C@@H](CC2CCCCC2)NCC(=O)O)CC1 (stereo partly drawn) [Example 79, HO2CCH2-D-Cha-Pro-4-NHCH2C6H10CH2NH2·HCl]",140
6,"NCc1ccc(CNC(=O)[C@@H]2CCCN2C(=O)[C@@H](CC2CCCCC2)NCC(=O)O)cc1 [Example 78, HO2CCH2-D-Cha-Pro-4-NHCH2C6H4CH2NH2·HCl]",46
7,"CCC(CC)C(=O)N[C@@H](CCS(C)(=O)=O)C(=O)N1CCC[C@H]1C(=O)NCc1ccc(C(=N)N)cc1 [Example 91, (C2H5)2CHCO-Met(O2)-Pro-p-NHCH2C6H4C(NH)NH2·HCl]",63

# Tested on: human or animal plasma
# Experiment: Anticoagulation determination in plasma: activated partial thromboplastin time (APTT)
# Assay type: biochemical
# Settings: concentration doubling activated partial thromboplastin time
# Description: as §3, §4
row,Structure (SMILES),Human Plasma Anticoagulation 2x Clotting time (ng/mL) APTT
1,"N=C(N)c1ccc(CNC(=O)[C@@H]2CCCN2C(=O)[C@@H](CCc2ccccc2)NCC(=O)O)cc1 [Example 87, HOOCCH2-D-hPhe-Pro-p-NHCH2C6H4C(NH)NH2·HCl]",260 ng/mL
2,"CCS(=O)(=O)N[C@H](CC1CCCCC1)C(=O)N1CCC[C@H]1C(=O)NCc1ccnc(N)c1 [Example 83, EtSO2-D-Cha-Pro-4-NHCH2-2-aminopyridine·HCl]","1,000 ng/mL"
3,"CCS(=O)(=O)N[C@H](CC1CCCCC1)C(=O)N1CCC[C@H]1C(=O)NCc1ccc(CN)cc1 [Example 81, EtSO2-D-Cha-Pro-4-NHCH2C6H4CH2NH2·HCl]","1,500 ng/mL"
4,"N=C(N)c1ccc(CNC(=O)CN(CCc2ccccc2)C(=O)CNCC(=O)O)cc1 [Example 89, HOOCCH2-Gly-N-C6H5CH2CH2Gly-p-NHCH2C6H4C(NH)NH2·HCl]","51,000 ng/mL"
5,"NCC1CCC(CNC(=O)[C@@H]2CCCN2C(=O)[C@@H](CC2CCCCC2)NCC(=O)O)CC1 (stereo partly drawn) [Example 79, HO2CCH2-D-Cha-Pro-4-NHCH2C6H10CH2NH2·HCl]","1,700 ng/mL"
6,"NCc1ccc(CNC(=O)[C@@H]2CCCN2C(=O)[C@@H](CC2CCCCC2)NCC(=O)O)cc1 [Example 78, HO2CCH2-D-Cha-Pro-4-NHCH2C6H4CH2NH2·HCl]",430 ng/mL
7,"CCC(CC)C(=O)N[C@@H](CCS(C)(=O)=O)C(=O)N1CCC[C@H]1C(=O)NCc1ccc(C(=N)N)cc1 [Example 91, (C2H5)2CHCO-Met(O2)-Pro-p-NHCH2C6H4C(NH)NH2·HCl]","3,000 ng/mL"

# Tested on: human or animal plasma
# Experiment: Anticoagulation determination in plasma: prothrombin time (PT)
# Assay type: biochemical
# Settings: concentration doubling prothrombin time
# Description: as §3, §4
row,Structure (SMILES),Human Plasma Anticoagulation 2x Clotting time (ng/mL) PT
1,"N=C(N)c1ccc(CNC(=O)[C@@H]2CCCN2C(=O)[C@@H](CCc2ccccc2)NCC(=O)O)cc1 [Example 87, HOOCCH2-D-hPhe-Pro-p-NHCH2C6H4C(NH)NH2·HCl]",310 ng/mL
2,"CCS(=O)(=O)N[C@H](CC1CCCCC1)C(=O)N1CCC[C@H]1C(=O)NCc1ccnc(N)c1 [Example 83, EtSO2-D-Cha-Pro-4-NHCH2-2-aminopyridine·HCl]","1,300 ng/mL"
3,"CCS(=O)(=O)N[C@H](CC1CCCCC1)C(=O)N1CCC[C@H]1C(=O)NCc1ccc(CN)cc1 [Example 81, EtSO2-D-Cha-Pro-4-NHCH2C6H4CH2NH2·HCl]","2,700 ng/mL"
4,"N=C(N)c1ccc(CNC(=O)CN(CCc2ccccc2)C(=O)CNCC(=O)O)cc1 [Example 89, HOOCCH2-Gly-N-C6H5CH2CH2Gly-p-NHCH2C6H4C(NH)NH2·HCl]","37,000 ng/mL"
5,"NCC1CCC(CNC(=O)[C@@H]2CCCN2C(=O)[C@@H](CC2CCCCC2)NCC(=O)O)CC1 (stereo partly drawn) [Example 79, HO2CCH2-D-Cha-Pro-4-NHCH2C6H10CH2NH2·HCl]","2,400 ng/mL"
6,"NCc1ccc(CNC(=O)[C@@H]2CCCN2C(=O)[C@@H](CC2CCCCC2)NCC(=O)O)cc1 [Example 78, HO2CCH2-D-Cha-Pro-4-NHCH2C6H4CH2NH2·HCl]",760 ng/mL
7,"CCC(CC)C(=O)N[C@@H](CCS(C)(=O)=O)C(=O)N1CCC[C@H]1C(=O)NCc1ccc(C(=N)N)cc1 [Example 91, (C2H5)2CHCO-Met(O2)-Pro-p-NHCH2C6H4C(NH)NH2·HCl]","3,500 ng/mL"
